Measurements as given in patent US10711000B2 (Fronthera U.S. Pharmaceuticals LLC, priority 2018, dated 2020).
Where two headings read alike, the source gives them in different places.

Key:
[1] = Metabolic stability in human hepatocytes; format: in vitro ADME; settings: cryopreserved human hepatocytes 0.5 million/mL, compound 1 μM
Procedure: The metabolic stability was examined in cryopreserved human hepatocytes. Compound (1 μM) was mixed with human hepatocytes at 0.5 million/mL, and a small aliquot was taken at 0, 15, 30, 60 and 90 minutes for LC/MS/MS analysis. Intrinsic clearance and half-time were calculated.

CYP 1A2 = target: T1, CYP 1A2 (Homo sapiens, UniProt P05177); test: CYP inhibition in human liver microsome; format: in vitro ADME; settings: human liver microsomes, substrate phenacetin (10 μM); compounds diluted 1:3 starting at 50 μM; read-out: IC50 in CYP isozyme 1A2
T1 construct: from tissue; host or cells: human liver microsomes
T1 sequence (P05177 1-516): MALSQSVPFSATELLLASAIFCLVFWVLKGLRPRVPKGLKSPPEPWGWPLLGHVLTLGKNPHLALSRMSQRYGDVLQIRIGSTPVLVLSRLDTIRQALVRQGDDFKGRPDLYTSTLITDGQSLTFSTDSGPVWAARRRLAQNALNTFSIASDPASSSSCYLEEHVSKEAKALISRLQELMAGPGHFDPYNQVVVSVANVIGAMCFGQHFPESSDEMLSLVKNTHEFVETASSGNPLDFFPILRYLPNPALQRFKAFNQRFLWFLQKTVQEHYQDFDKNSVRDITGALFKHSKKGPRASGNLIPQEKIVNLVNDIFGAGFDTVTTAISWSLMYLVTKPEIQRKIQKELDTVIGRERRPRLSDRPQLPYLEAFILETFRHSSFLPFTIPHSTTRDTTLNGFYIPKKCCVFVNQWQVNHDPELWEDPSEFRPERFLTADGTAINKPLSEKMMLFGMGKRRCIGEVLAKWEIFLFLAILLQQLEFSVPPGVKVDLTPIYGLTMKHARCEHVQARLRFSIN
Procedure: (§1) Test compounds were evaluated for CYP inhibition using human liver microsomes (HLM). Test compounds were 1:3 serially diluted starting at 50 μM to generate 7 different concentrations. After incubation of diluted test compounds with HLM, a substrate cocktail composed of phenacetin (10 μM), amodiaquine (2 μM), diclofenac (5 μM), s-mephenytoin (30 μM), dextromethorphan (5 μM), and midazolam (2 μM) was added to check the remaining CYP activity for CYP 1A2, 2C8, 2C9, 2C19, 2D6 and 3A4. The CYP activity was measured by detecting the peak area of individual metabolites of know CYP substrates using LC/MS/MS. A percentage of inhibition of CYP was calculated at each final concentration of test compound, through which an IC50 was fitted to represent the inhibition potential.

CYP 2D6 = target: T2, CYP 2D6 (Homo sapiens, UniProt P10635); test: CYP inhibition in human liver microsome; format: in vitro ADME; settings: human liver microsomes, substrate dextromethorphan (5 μM); compounds diluted 1:3 starting at 50 μM; read-out: IC50 in CYP isozyme 2D6
T2 construct: from tissue; host or cells: human liver microsomes
T2 sequence (P10635 whole entry): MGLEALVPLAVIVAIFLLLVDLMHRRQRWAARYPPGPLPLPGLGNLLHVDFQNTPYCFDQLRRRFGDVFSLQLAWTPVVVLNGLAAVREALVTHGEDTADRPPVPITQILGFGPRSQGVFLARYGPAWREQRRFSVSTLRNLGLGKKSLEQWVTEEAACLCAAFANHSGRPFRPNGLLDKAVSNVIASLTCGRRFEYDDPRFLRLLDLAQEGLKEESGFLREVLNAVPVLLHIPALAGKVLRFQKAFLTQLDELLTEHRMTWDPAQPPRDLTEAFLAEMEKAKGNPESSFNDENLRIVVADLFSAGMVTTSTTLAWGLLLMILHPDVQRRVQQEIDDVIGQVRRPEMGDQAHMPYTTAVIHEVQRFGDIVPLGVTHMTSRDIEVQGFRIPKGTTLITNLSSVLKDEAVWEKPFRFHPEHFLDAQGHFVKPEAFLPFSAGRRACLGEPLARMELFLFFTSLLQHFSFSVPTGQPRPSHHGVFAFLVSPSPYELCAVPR
Procedure: as §1

CYP 2C9 = target: T3, CYP 2C9 (Homo sapiens, UniProt P11712); test: CYP inhibition in human liver microsome; format: in vitro ADME; settings: human liver microsomes, substrate diclofenac (5 μM); compounds diluted 1:3 starting at 50 μM; read-out: IC50 in CYP isozyme 2C9
T3 construct: from tissue; host or cells: human liver microsomes
T3 sequence (P11712 whole entry): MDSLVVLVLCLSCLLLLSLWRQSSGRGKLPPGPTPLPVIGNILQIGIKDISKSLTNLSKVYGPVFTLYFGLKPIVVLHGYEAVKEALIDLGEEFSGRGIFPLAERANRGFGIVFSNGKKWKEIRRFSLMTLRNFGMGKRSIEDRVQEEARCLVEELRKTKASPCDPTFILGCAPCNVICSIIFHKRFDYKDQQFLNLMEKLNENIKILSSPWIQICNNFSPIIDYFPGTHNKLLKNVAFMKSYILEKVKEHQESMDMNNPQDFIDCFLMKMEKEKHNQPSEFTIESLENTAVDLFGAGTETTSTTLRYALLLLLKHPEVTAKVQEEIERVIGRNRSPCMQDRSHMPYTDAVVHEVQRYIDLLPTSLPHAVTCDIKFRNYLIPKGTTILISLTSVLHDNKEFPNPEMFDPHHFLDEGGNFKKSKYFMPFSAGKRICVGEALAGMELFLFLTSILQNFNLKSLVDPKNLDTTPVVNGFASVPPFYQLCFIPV
Procedure: as §1

CYP 3A4 = target: T4, CYP 3A4 (Homo sapiens, UniProt P08684); test: CYP inhibition in human liver microsome; format: in vitro ADME; settings: human liver microsomes, substrate midazolam (2 μM); compounds diluted 1:3 starting at 50 μM; read-out: IC50 in CYP isozyme 3A4
T4 construct: from tissue; host or cells: human liver microsomes
T4 sequence (P08684 whole entry): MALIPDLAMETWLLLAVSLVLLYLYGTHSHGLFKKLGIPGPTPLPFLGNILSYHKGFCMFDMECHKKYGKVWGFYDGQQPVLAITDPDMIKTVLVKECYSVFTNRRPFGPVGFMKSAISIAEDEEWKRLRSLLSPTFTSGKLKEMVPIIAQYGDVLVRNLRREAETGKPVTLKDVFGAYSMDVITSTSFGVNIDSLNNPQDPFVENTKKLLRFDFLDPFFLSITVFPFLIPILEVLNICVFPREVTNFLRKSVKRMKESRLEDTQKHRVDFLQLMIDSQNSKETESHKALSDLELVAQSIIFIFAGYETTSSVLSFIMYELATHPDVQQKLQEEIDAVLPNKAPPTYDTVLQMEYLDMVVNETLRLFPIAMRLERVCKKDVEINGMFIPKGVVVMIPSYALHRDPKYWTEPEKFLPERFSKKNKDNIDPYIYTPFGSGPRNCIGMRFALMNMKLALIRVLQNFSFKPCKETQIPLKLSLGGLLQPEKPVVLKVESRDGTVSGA
Procedure: as §1

Autotaxin = target: T5, Autotaxin (Homo sapiens, UniProt Q13822); test: LPA formation in pooled human plasma (ex vivo autotaxin inhibition); format: biochemical; settings: 2 hours incubation
T5 construct: from tissue; host or cells: pooled human plasma
Outline: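 Pooled human plasma incubated 2 h with various compound concentrations; LPA 18:2 and 20:4 quantified by LC/MS/MS (negative-ion MRM, LPA17:0 internal standard) after butanol extraction. Inhibition of LPA formation relative to untreated plasma; IC50 by non-linear regression.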

[2] = Pharmacokinetics in cynomolgus monkeys; format: in vivo; settings: male, cynomolgus monkey, plasma, iv, I.V. (1 mg/kg)
[3] = LPA 18:2 by LC/MS/MS, read-out: LPA formation (18:2) (IC50)
[4] = LPA 20:4 by LC/MS/MS, read-out: LPA formation (20:4) (IC50)

Row | Structure (SMILES) | metabolic stability (halftime in minutes), Human [1] [min] | IC50 (CYP 1A2) [µM] | IC50 (CYP 2D6) [µM] | IC50 (CYP 2C9) [µM] | IC50 (CYP 3A4) [µM] | IC50 (Autotaxin; [3]) [µM] | IC50 (Autotaxin; [4]) [µM] | AUC [2] [ng·h/mL] | C0 [2] [ng/mL] | clearance [2] [mL/min/kg] | half-life [2] [h]
1 | CCc1nn2cc(F)c(N3CC4(CN(C(=O)[C@H]5CCOC5)C4)C3)cc2c1N(C)c1nc(-c2ccc(F)cc2)c(C#N)s1 [Example 102, 2-[[2-ethyl-6-fluoro-5-[2-[(3S)-tetrahydrofuran-3-carbonyl]-2,6-diazaspiro[3.3]heptan-6-yl]pyrazolo[1,5-a]pyridin-3-yl]-methyl-amino]-4-(4-fluorophenyl)thiazole-5-carbonitrile] | 76.6 | 13.9 | > 50 | 5.69 | > 50 | ≤ 0.1 | ≤ 0.1 | – | – | – | –
2 | CCc1nc2c(C)cc(N3CCN(CC(=O)N4CC(O)C4)CC3)cn2c1N(C)c1nc(-c2ccc(F)cc2)c(C#N)s1 [GLPG1690] | 117.9 | > 50 | > 50 | 16.7 | 13.5 | – | – | 2770 ± 246 | 4210 ± 1150 | 6.02 ± 0.51 | 1.41 ± 0.19
3 | CCn1nc2ncc(N3CC4(CN(C(=O)C5CCOCC5)C4)C3)cc2c1N(C)c1nc(-c2ccc(F)cc2)c(C#N)s1 [Compound 118, 2-((2-ethyl-5-(6-(tetrahydro-2H-pyran-4-carbonyl)-2,6-diazaspiro[3.3]heptan-2-yl)-2H-pyrazolo[3,4-b]pyridin-3-yl)(methyl)amino)-4-(4-fluorophenyl)thiazole-5-carbonitrile] | >216.8 | > 50 | > 50 | 15.9 | > 50 | ≤ 0.1 | ≤ 0.1 | 2640 ± 473 | 993 ± 8.6 | 6.06 ± 1.2 | 6.59 ± 1.5
4 | CCc1nn2cc(F)c(N3CCN(CC(=O)N4CC(O)C4)CC3)cc2c1N(C)c1nc(-c2ccc(F)cc2)c(C#N)s1 [Example 101, 2-[[2-ethyl-6-fluoro-5-[4-[2-(3-hydroxyazetidin-1-yl)-2-oxo-ethyl]piperazin-1-yl]pyrazolo[1,5-a]pyridin-3-yl]-methyl-amino]-4-(4-fluorophenyl)thiazole-5-carbonitrile] | >216.8 | > 50 | > 50 | 17.3 | > 50 | ≤ 0.1 | ≤ 0.1 | 1990 ± 92 | 1220 ± 166 | 8.21 ± 0.38 | 1.82 ± 0.1
